Source: patent publication US20140045823A1 (Neurocrine Biosciences, Inc., priority 2012, published 2014)
pEC50: −log10 of the molar value.

molecular target: T1, human GPR119 (Homo sapiens, UniProt Q8TDV5); experiment: AlphaScreen cAMP assay in MIN6 cells stably transfected with human GPR119; type: cell-based; conditions: Min-6/hGPR119 cells, 45 min at room temperature
T1 construct: expression vector for human GPR119 cDNA (Acc. No. NP_848566); expressed in transfected cells; Min-6/hGPR119
T1 sequence (Q8TDV5 1-335): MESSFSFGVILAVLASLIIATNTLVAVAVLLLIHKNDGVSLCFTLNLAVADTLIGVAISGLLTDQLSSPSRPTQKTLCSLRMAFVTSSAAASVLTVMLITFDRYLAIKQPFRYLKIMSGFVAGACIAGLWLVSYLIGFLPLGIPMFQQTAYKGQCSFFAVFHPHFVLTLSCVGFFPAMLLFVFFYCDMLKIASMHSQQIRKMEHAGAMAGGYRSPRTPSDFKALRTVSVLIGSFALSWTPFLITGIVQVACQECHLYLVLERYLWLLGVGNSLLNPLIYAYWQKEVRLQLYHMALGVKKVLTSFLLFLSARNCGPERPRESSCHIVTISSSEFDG
How it was run: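 MIN6 cells stably expressing human GPR119, seeded 10000/well and grown 24 h, were exposed to compound in pH 7.4 buffer with 0.5 mM IBMX, 0.1% BSA and 1% DMSO for 45 min at room temperature. Intracellular cAMP then measured by AlphaScreen.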

pEC50 | Compound
6.53 | COC[C@H]1CCCN1C(=O)c1ccc(-c2ncc(C(=O)N(C3CC3)C3CCN(C(=O)OC(C)(C)C)CC3)cn2)cc1 [Example 203, 4-(Cyclopropyl-{2-[4-(2-methoxymethyl-pyrrolidine-1-carbonyl)-phenyl]-pyrimidine-5-carbonyl}-amino)-piperidine-1-carboxylic acid tert-butyl ester]
6.52 | COC[C@@H]1CCCN1C(=O)c1ccc(-c2ncc(C(=O)N(C3CC3)C3CCN(C(=O)OC(C)(C)C)CC3)cn2)cc1 [Example 204, 4-(Cyclopropyl-{2-[4-(2-methoxymethyl-pyrrolidine-1-carbonyl)-phenyl]-pyrimidine-5-carbonyl}-amino)-piperidine-1-carboxylic acid tert-butyl ester]
6.46 | CN(C(=O)c1ccc(-c2ncc(C(=O)N(C3CC3)C3CCN(C(=O)OC(C)(C)C)CC3)cn2)cc1)C1CCOCC1 [Example 205, 4-[Cyclopropyl-(2-{4-[methyl-(tetrahydro-pyran-4-yl)-carbamoyl]-phenyl}-pyrimidine-5-carbonyl)-amino]-piperidine-1-carboxylic acid tert-butyl ester]
6.51 | CN(CC1(C)COC1)C(=O)c1ccc(-c2ncc(C(=O)N(C3CC3)C3CCN(C(=O)OC(C)(C)C)CC3)cn2)cc1 [Example 206, 4-[Cyclopropyl-(2-{4-[methyl-(3-methyl-oxetan-3-ylmethyl)-carbamoyl]-phenyl}-pyrimidine-5-carbonyl)-amino]-piperidine-1-carboxylic acid tert-butyl ester]
6.43 | CC(C)(C)OC(=O)N1CCC(N(C(=O)c2cnc(-c3ccc(C(=O)NCCn4ccc(C5CC5)n4)cc3)nc2)C2CC2)CC1 [Example 207, 4-[Cyclopropyl-(2-{4-[2-(3-cyclopropyl-pyrazol-1-yl)-ethylcarbamoyl]-phenyl}-pyrimidine-5-carbonyl)-amino]-piperidine-1-carboxylic acid tert-butyl ester]
6.74 | CC(C)(C)OC(=O)N1CCC(N(C(=O)c2cnc(-c3ccc(C(=O)Nc4ccn[nH]4)cc3)nc2)C2CC2)CC1 [Example 208, 4-(Cyclopropyl-{2-[4-(2H-pyrazol-3-ylcarbamoyl)-phenyl]-pyrimidine-5-carbonyl}-amino)-piperidine-1-carboxylic acid tert-butyl ester]
6.51 | CN(Cc1ccncc1)C(=O)Cc1ccc(-c2ncc(C(=O)N(C3CC3)C3CCN(C(=O)OC(C)(C)C)CC3)cn2)cc1 [Example 209, 4-[Cyclopropyl-(2-{4-[(methyl-pyridin-4-ylmethyl-carbamoyl)-methyl]-phenyl}-pyrimidine-5-carbonyl)-amino]-piperidine-1-carboxylic acid tert-butyl ester]
6.23 | CC(O)c1cccc(NC(=O)Cc2ccc(-c3ncc(C(=O)N(C4CC4)C4CCN(C(=O)OC(C)(C)C)CC4)cn3)cc2)c1 (stereo not drawn) [Example 210, 4-{Cyclopropyl-[2-(4-{[3-(1-hydroxy-ethyl)-phenylcarbamoyl]-methyl}-phenyl)-pyrimidine-5-carbonyl]-amino}-piperidine-1-carboxylic acid tert-butyl ester]
6.25 | CC(C)(C)OC(=O)N1CCC(N(C(=O)c2cnc(-c3ccc(CC(=O)N4CCC[C@@H]4C#N)cc3)nc2)C2CC2)CC1 [Example 211, 4-[(2-{4-[2-(2-Cyano-pyrrolidin-1-yl)-2-oxo-ethyl]-phenyl}-pyrimidine-5-carbonyl)-cyclopropyl-amino]-piperidine-1-carboxylic acid tert-butyl ester]
6.46 | COC[C@@H]1CCCN1C(=O)Cc1ccc(-c2ncc(C(=O)N(C3CC3)C3CCN(C(=O)OC(C)(C)C)CC3)cn2)cc1 [Example 212, 4-[Cyclopropyl-(2-{4-[2-(2-methoxymethyl-pyrrolidin-1-yl)-2-oxo-ethyl]-phenyl}-pyrimidine-5-carbonyl)-amino]-piperidine-1-carboxylic acid tert-butyl ester]
6.28 | CC(C)(C)OC(=O)N1CCC(N(C(=O)c2cnc(-c3ccc(CC(=O)NC4CCOCC4)cc3)nc2)C2CC2)CC1 [Example 213, 4-[Cyclopropyl-(2-{4-[(tetrahydro-pyran-4-ylcarbamoyl)-methyl]-phenyl}-pyrimidine-5-carbonyl)-amino]-piperidine-1-carboxylic acid tert-butyl ester]
6.38 | CC(C)(C)OC(=O)N1CCC(N(C(=O)c2cnc(-c3ccc(CC(=O)N4CCC[C@H]4C#N)cc3)nc2)C2CC2)CC1 [Example 214, 4-[(2-{4-[2-(2-Cyano-pyrrolidin-1-yl)-2-oxo-ethyl]-phenyl}-pyrimidine-5-carbonyl)-cyclopropyl-amino]-piperidine-1-carboxylic acid tert-butyl ester]
6.41 | CC(C)(C)OC(=O)N1CCC(N(C(=O)c2cnc(-c3ccc(CC(=O)NCc4ccccn4)cc3)nc2)C2CC2)CC1 [Example 215, 4-{Cyclopropyl-[2-(4-{[(pyridin-2-ylmethyl)-carbamoyl]-methyl}-phenyl)-pyrimidine-5-carbonyl]-amino}-piperidine-1-carboxylic acid tert-butyl ester]
6.37 | COC1CN(C(=O)Cc2ccc(-c3ncc(C(=O)N(C4CC4)C4CCN(C(=O)OC(C)(C)C)CC4)cn3)cc2)C1 [Example 216, 4-[Cyclopropyl-(2-{4-[2-(3-methoxy-azetidin-1-yl)-2-oxo-ethyl]-phenyl}-pyrimidine-5-carbonyl)-amino]-piperidine-1-carboxylic acid tert-butyl ester]
6.26 | CC(C)(C)OC(=O)N1CCC(N(C(=O)c2cnc(-c3ccc(CC(=O)Nc4cccc(CO)c4)cc3)nc2)C2CC2)CC1 [Example 217, 4-[Cyclopropyl-(2-{4-[(3-hydroxymethyl-phenylcarbamoyl)-methyl]-phenyl}-pyrimidine-5-carbonyl)-amino]-piperidine-1-carboxylic acid tert-butyl ester]
6.67 | CN(CC#N)C(=O)Cc1ccc(-c2ncc(C(=O)N(C3CC3)C3CCN(C(=O)OC(C)(C)C)CC3)cn2)cc1 [Example 218, 4-[(2-{4-[(Cyanomethyl-methyl-carbamoyl)-methyl]-phenyl}-pyrimidine-5-carbonyl)-cyclopropyl-amino]-piperidine-1-carboxylic acid tert-butyl ester]
6.43 | CC(C)(C)OC(=O)N1CCC(N(C(=O)c2cnc(-c3ccc(CC(=O)NCC4CCCCO4)cc3)nc2)C2CC2)CC1 (stereo not drawn) [Example 219, 4-{Cyclopropyl-[2-(4-{[(tetrahydro-pyran-2-ylmethyl)-carbamoyl]-methyl}-phenyl)-pyrimidine-5-carbonyl]-amino}-piperidine-1-carboxylic acid tert-butyl ester]
6.74 | CN(CCOCC1CC1)C(=O)c1ccc(-c2ncc(C(=O)N(C3CC3)C3CCN(C(=O)OC(C)(C)C)CC3)cn2)cc1 [Example 220, 4-[Cyclopropyl-(2-{4-[(2-cyclopropylmethoxy-ethyl)-methyl-carbamoyl]-phenyl}-pyrimidine-5-carbonyl)-amino]-piperidine-1-carboxylic acid tert-butyl ester]
6.96 | CN(CC#N)C(=O)c1ccc(-c2ncc(C(=O)N(C3CC3)C3CCN(C(=O)OC(C)(C)C)CC3)cn2)cc1 [Example 221, 4-({2-[4-(Cyanomethyl-methyl-carbamoyl)-phenyl]-pyrimidine-5-carbonyl}-cyclopropyl-amino)-piperidine-1-carboxylic acid tert-buyl ester]
6.26 | CN(C(=O)c1ccc(-c2ncc(C(=O)N(C3CC3)C3CCN(C(=O)OC(C)(C)C)CC3)cn2)cc1)C1CCCOC1 (stereo not drawn) [Example 222, 4-[Cyclopropyl-(2-{4-[methyl-(tetrahydro-pyran-3-yl)-carbamoyl]-phenyl}-pyrimidine-5-carbonyl)-amino]-piperidine-1-carboxylic acid tert-butyl ester]
6.20 | CN(CC(C)(C)O)C(=O)c1ccc(-c2ncc(C(=O)N(C3CC3)C3CCN(C(=O)OC(C)(C)C)CC3)cn2)cc1 [Example 223, 4-[Cyclopropyl-(2-{4-[(2-hydroxy-2-methyl-propyl)-methyl-carbamoyl]-phenyl}-pyrimidine-5-carbonyl)-amino]-piperidine-1-carboxylic acid tert-butyl ester]
6.80 | CC(C)(C)OC(=O)N1CCC(N(C(=O)c2cnc(-c3ccc(C(=O)NCc4ccccn4)cc3)nc2)C2CC2)CC1 [Example 224, 4-[Cyclopropyl-(2-{4-[(pyridin-2-ylmethyl)-carbamoyl]-phenyl}-pyrimidine-5-carbonyl)-amino]-piperidine-1-carboxylic acid tert-butyl ester]
6.73 | CC(C)(C)OC(=O)N1CCC(N(C(=O)c2cnc(-c3ccc(C(=O)NCC4CCCCO4)cc3)nc2)C2CC2)CC1 (stereo not drawn) [Example 225, 4-[Cyclopropyl-(2-{4-[(tetrahydro-pyran-2-ylmethyl)-carbamoyl]-phenyl}-pyrimidine-5-carbonyl)-amino]-piperidine-1-carboxylic acid tert-butyl ester]
6.75 | COC1CN(C(=O)c2ccc(-c3ncc(C(=O)N(C4CC4)C4CCN(C(=O)OC(C)(C)C)CC4)cn3)cc2)C1 [Example 226, 4-(Cyclopropyl-{2-[4-(3-methoxy-azetidine-1-carbonyl)-phenyl]-pyrimidine-5-carbonyl}-amino)-piperidine-1-carboxylic acid tert-butyl ester]
